Data as given in US20080051464A1, “Protein phosphatase inhibitors” (The Cleveland Clinic Foundation, priority 2006, published 2008).

Key:
MKPs = experiment: induction of MKPs substrates in Jurkat cells (Western blotting); assay type: cell-based, human; details: for differential effects on MKP substrates (pERK1/2, p38, pJNK): L6 at 1-100 ng/ml
Protocol: FIG. 22 illustrates selective induction of MKPs substrates by L6 and analogs in Jurkat human leukemic cells. Jurkat cells were treated with the compounds for 30 min in culture prior to quantification of MKPs substrates by SDS-PAGE/Western blotting.

Jurkat cells = experiment: Jurkat cell apoptosis (Annexin V / 7-AAD, FACS); assay type: cell-based, human; details: 16 hrs (FIG. 23)
Protocol: FIG. 23 illustrates jurkat cells were treated with L6 and analogs in culture for 16 hrs. Cells were then stained for apoptotic marker Annexin V and cell death marker 7-AAD prior to FACS analysis.

[1] = test system: melanoma MeI-7, colon cancer MC-26, breast cancer 4T1 and prostate cancer DU145; experiment: cyto-toxicity against four other cancer cell lines (MTT assay); assay type: cell-based; details: FIGS. 19B, C and D
Source text: (§1) L5, L6 and L6 analogs (Chembridge), mouse IFNγ ELISPOT Kit (R & D System) and antibody against pLck-pY394 or pERK1/2 (Cell Signaling) were purchased from commercial sources. Human Jurkat T cell line and murine B16 melanoma cell line (ATCC) and other cancer cell lines were maintained in […] culture medium supplemented with 10% fetal calf serum (FCS). The effects of chemical compounds on cancer cell growth in culture were quantified by MTT assays following our established procedures.

B16 melanoma cells = experiment: B16 melanoma cell growth in culture (MTT assay); assay type: cell-based, mouse
Source text: as §1

prostate cancer DU145 = experiment: DU145 cell growth (MTT assay); assay type: cell-based; details: highest testing dose (5 μg/ml) (FIG. 19E)
Source text: as §1

pERK1/2 in B16 cells = pERK1/2 in B16 cells (Western blotting); assay type: cell-based, mouse; details: 10 min (FIG. 20C)
Protocol: FIG. 20 illustrates L6 induces pERK1/2 in Jurkat and B16 cells. A and B, Western blotting membranes with samples and probed for the SHP-1 substrates were stripped and then re-probed with an antibody for pERK1/2. C, B16 cells were treated with L6 or L6a6 at […] for 10 min and subjected to SDS-PAGE/Western blotting to quantify pERK1/2.

[2] = test system: HT-29 human colon cancer cells; experiment: cytotoxicity of 5FU against HT-29 cells with L6 or analogs (MTT assay); assay type: cell-based; details: 5FU 2 μm, 3 days, then 4 days culture (FIG. 24)
Protocol: FIG. 24 illustrates HT-29 cells were treated with L6 or the analogs in the absence or presence of 5FU (2 μm) for 3 days. After washing, the cells were cultured for 4 days prior to quantification of viable cells by MTT assays.

Cc1ccc(-n2sc3ccccc3c2=O)cc1 [L6a2]
MKP predominantly targeted (as indicated by effects on the substrates) (MKPs): targeted a p38-specific MKP | differential effects on MKP substrates (pERK1/2, p38, pJNK) (MKPs; 30 min (FIG. 22)): selectively induced p38 phosphorylation | Jurkat cell apoptosis (Jurkat cells): apoptosis were induced | killing dose relative to L6 and L6a6 [1]: 5-10 folds higher | dose that completely killed B16 cells (killing dose) (B16 melanoma cells; FIG. 19A): 2.5 µg/mL | toxicity toward B16 cells in culture (B16 melanoma cells; comparable conditions (FIG. 19A)): little or limited toxicity | DU145 cell growth (prostate cancer DU145): failed to affect DU145 cell growth

Cc1cc(-n2sc(Cl)c(C)c2=O)ccc1Cl [L6a6]
induction of pERK1/2 in B16 cells (pERK1/2 in B16 cells): pERK1/2-inducing activity | MKP predominantly targeted (as indicated by effects on the substrates) (MKPs): mainly acted against MKP1 | dose inducing pJNK and p-p38 (MKPs; 30 min (FIG. 22)): ≥ 1 ng/ml | differential effects on MKP substrates (pERK1/2, p38, pJNK) (MKPs; 30 min (FIG. 22)): induced pERK1/2 only at the high doses | Jurkat cell apoptosis (Jurkat cells): apoptosis were induced | augmentation of 5FU cytotoxicity against HT-29 cells [2]: augmented
